Measured values: patent US20080063636A1, “Variant Amyloid Protein” (priority 2004, published 2008)

Tested on: human cultured cell HEK cells
Assay: Quantification of amyloid protein secreted by HEK cells expressing APP cDNA
Type: cell-based
Parameters: Aβ42: unit not given here
Conditions: secreted by HEK cells expressing the APP cDNA, 2 days, culture supernatant
Excerpt: Since the variant APP gene cDNA obtained in Example 1 had the variant inside the amyloid protein, a β secretase or γ secretase cleavage site was examined. Then, an expression vector of the variant APP gene cDNA was introduced into human cultured cell HEK cells known to express APP as well as to produce and secrete amyloid protein. The expression was left to occur for 2 days to obtain a culture supernatant, and an immunoprecipitated fraction obtained by using an anti-amyloid protein antibody was subjected to a mass analysis with the use of AXIMA-CFR manufactured by Shimadzu Corporation.
Note that a vacant expression vector dissolved into a normal saline was used as the control in Table 1. Also, Aβ42 represents Aβ1-42 and Aβ1-43 or Aβ1-42 (ΔE) and Aβ1-43 (ΔE), and Aβ40 represents Aβ1-40 or Aβ1-40 (ΔE).

Wildtype APP: wildtype amyloid precursor protein expressed in human cultured HEK cells
Aβ40 (Aβ40 = Aβ1-40 or Aβ1-40 (ΔE)): 200 pg/mL
Aβ42 (Aβ42 = Aβ1-42 and Aβ1-43 or their ΔE forms): 26
